{
  "source": "patent US20220296583A1",
  "about": "“COMPOSITIONS AND METHODS FOR TREATMENT OF OVARIAN AND BREAST CANCER” (Board of Regents, The University of Texas System, priority 2021, published 2022)",
  "key": {"[1]": {"test_system": "SKOv3, OVCAR8, HCC5032, or MDA-MB-231 cells", "test": "DNA damage: γ-H2AX staining and comet assay with olaparib", "type": "cell-based", "settings": "SKOv3, OVCAR8, HCC5032, MDA-MB-231"}, "[2]": {"test_system": "HDAC4 (Ser246)/HDAC5 (Ser256)/HDAC7 (Ser155)", "test": "Western analysis of HDAC4/5/7 phosphorylation", "type": "cell-based", "settings": "4 μM, 24 hrs; nearly all the cell lines tested", "experimental": "To identify the mechanism(s) by which SIK2 inhibition decreases DNA DBS repair, it was tested whether SIK2 inhibitors decrease the phosphorylation of class IIa HDACs, which control its nuclear cytoplasmic shuttling and consequently its association with DNA. […] Next, it was investigated whether SIK2 inhibitors increase nuclear localization of HDAC5. SIK2 inhibition increased nuclear localization of HDAC5 judged by increasing nuclear florescence intensity (FIG. 7B and FIG. 8A) and the nuclear fraction of HDAC5 expression (FIG. 8B). […] Therefore, it was hypothesized that SIK2 inhibition may block MEF transcription factor activity. […] Next, it was examined whether SIK2 regulation of MEF2 activity was HDAC4/5-dependent, increasing its binding to MEF2D protein. […] These observations are consistent with the hypothesis that SIK2 inhibition increases nuclear localization of HDAC4/5, blocking MEF2 transcription (FIG. 8E).\nCells were incubated with and without treatment for the intervals indicated and then cells were incubated in lysis buffer (50 mM Hepes, pH 7.0, 150 mM NaCl, 1.5 mM MgCl2, 1 mM EGTA, 10, 10% glycerol, 1% Triton X-100, 50 mM NaF, 1 mM Na3VO4 1 mM PMSF, 10 μg/mL leupeptin and10 μg/mL aprotinin) on ice for 30 min. […] The protein concentration was assessed using a bicinchoninic acid (BCA) protein assay (Thermo Scientific, 23228). […]"}, "[3]": {"test_system": "MDA-MB-231 xenograft", "test": "MDA-MB-231 mammary fat pad xenograft, Compound B and olaparib", "type": "in vivo, mice", "settings": "50 mg/kg, oral, 5 weeks"}, "[4]": {"test": "Pre-clinical toxicology studies", "type": "in vivo"}, "[5]": {"test_system": "MDA-MB-231 orthotopic xenografts", "test": "MDA-MB-231 orthotopic xenografts", "type": "in vivo, mice", "experimental": "To evaluate additive or synergistic interactions, a combination Index (CI value) was calculated with CalcuSyn software."}, "[6]": {"test_system": "OVCAR8, SKOv3, OC316, OVCAR3, ES2, A2780, MDA2774, and IGROV1 cells", "test": "Short term cell proliferation (CellTiter-Glo), eight ovarian cancer cell lines", "type": "cell-based, human", "settings": "single concentration of Compound B 0.75-1.25 μM; p<0.01", "experimental": "Cells were seeded in 6 replicates in black-walled and clear-bottomed 96-well plates and incubated overnight. […] The CellTiter-Glo luminescent cell viability assay (Promega) was used to evaluate the effect of treatment on cancer growth. This experiment was performed several times to optimize the concentration. […] GraphPad Prism 8 was used to generate growth curves and calculated IC50. CalcuSyn was used to evaluate additive or synergistic interactions, a combination Index (CI value)."}, "[7]": {"test_system": "OVCAR8, SKOv3, OC316, MDA4772 and ES2 ovarian cancer cell lines", "test": "Clonogenic survival assay, Compound B and carboplatin", "type": "cell-based", "settings": "12-14 days; five cell lines", "experimental": "Cell viability was measured with a bioluminescence assay as described in the Examples, and IC50 values were calculated. (B) Sensitivity to carboplatin. Eight ovarian cancer cell lines were treated as above with different concentrations of carboplatin as indicated. […] The drug concentration ratio is indicated in each plot. The combination index at 50% growth inhibition was calculated using CalcuSyn software. (E) Effect of SIK2 knockout on the carboplatin dose response curve. Cells were treated with different concentrations of carboplatin as indicated. IC50 values for (A-C, E) were calculated by GraphPad Prism 8. […] Four hundred OVCAR8 or SKOv3 ovarian cancer cells were seeded in 6-well plates in culture medium for 24 h. […] The graphs indicate the mean colony formation numbers with standard deviations.\nCancer cells were seeded in 6-well plates at a density of 400 cells per well in culture medium for 24 h to permit cell adherence. […] After control colonies had grown to include at least 50 cells, cultures were fixed and stained with Coomassie blue (0.1% Coomassie brilliant blue R-250, 40% methanol, and 10% acetic acid) and counted. Colonies were counted from three independent experiments and the mean number of colonies and standard deviations calculated. Multiplicity adjusted p values for each treatment and control were determined."}, "[8]": {"test_system": "survivin", "test": "Survivin expression by western blot", "type": "cell-based", "settings": "OC316 and OVCAR8; 48 h", "experimental": "Cell lysates were collected and survivin expression was measured by western blot analysis. The experiments were performed three times individually. Densitometry values were determined by Image J shareware (NIH) and normalized to the GAPDH loading control. The values relative to the untreated group were plotted at the bottom.\nCells were incubated for 24-48 h with and without treatments and then harvested for western blot analysis. Briefly, cells were incubated in lysis buffer for 20 min on ice and centrifuged at 17,000×g for 10 min at 4° C. Protein concentration of cell lysates was determined with BCA reagent (Thermo Fisher Scientific, Houston, Tex., USA). Lysates were separated on 8-16% SDS-PAGE and transferred to polyvinylidene difluoride (PVDF) membranes. Immunoblots were probed with anti-survivin antibody (Novus; 1:2000, Centennial CO, USA) in 5% BSA overnight at 4° C. and HRP labeled secondary antibody was added for 1 h at RT. The signal was developed on X-ray films.\nMany current cancer chemotherapies, including platinum-based drugs, exert their antitumor effect by triggering apoptosis in cancer cells. […] The inhibitor of apoptosis protein family (IAPs) includes an important group of proteins involved in the regulation of apoptosis. One member of this protein family, survivin, plays an important role in promoting tumor progression by deregulating apoptosis and cell division."}, "[9]": {"molecular_target": "SIK1 (Homo sapiens, UniProt P57059)", "sequence (P57059 whole entry, canonical isoform)": "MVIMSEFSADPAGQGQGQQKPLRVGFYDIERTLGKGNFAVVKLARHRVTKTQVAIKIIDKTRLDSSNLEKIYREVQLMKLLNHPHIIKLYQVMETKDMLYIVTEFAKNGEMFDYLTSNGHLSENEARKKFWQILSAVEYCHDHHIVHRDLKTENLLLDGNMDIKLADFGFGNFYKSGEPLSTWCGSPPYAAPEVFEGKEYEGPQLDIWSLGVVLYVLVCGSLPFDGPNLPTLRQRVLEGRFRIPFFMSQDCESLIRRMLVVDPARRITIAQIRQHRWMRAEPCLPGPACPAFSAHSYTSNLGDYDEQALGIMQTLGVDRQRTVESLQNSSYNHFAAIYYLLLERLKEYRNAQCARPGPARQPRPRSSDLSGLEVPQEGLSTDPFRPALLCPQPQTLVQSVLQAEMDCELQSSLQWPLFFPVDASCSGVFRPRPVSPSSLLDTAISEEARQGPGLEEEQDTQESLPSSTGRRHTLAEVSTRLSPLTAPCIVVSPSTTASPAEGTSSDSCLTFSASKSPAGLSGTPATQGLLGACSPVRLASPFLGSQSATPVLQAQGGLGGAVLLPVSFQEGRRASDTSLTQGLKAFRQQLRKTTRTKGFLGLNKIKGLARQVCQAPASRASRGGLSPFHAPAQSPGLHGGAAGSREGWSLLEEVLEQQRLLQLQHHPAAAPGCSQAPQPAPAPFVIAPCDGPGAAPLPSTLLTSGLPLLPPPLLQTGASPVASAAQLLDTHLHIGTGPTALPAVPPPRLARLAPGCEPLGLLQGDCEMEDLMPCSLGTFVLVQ", "test": "SIK isoform dose response", "type": "biochemical"}, "[10]": {"test_system": "OVCAR8, SKOv3, and OC316 ovarian cancer cell lines", "test": "γ-H2AX punctae and comet assay, Compound B and carboplatin", "settings": "24 h"}},
  "note": "pIC50: −log10 of the molar value. “Also recorded” adds a separate entry of the source.",
  "data": [
    {"smiles": "COc1c(F)cc(F)cc1-c1c[nH]c2ncc(-c3cnn(C4CCN(S(C)(=O)=O)CC4)c3)cc12", "note": "[Compound B, 3-(3,5-difluoro-2-methoxyphenyl)-5-(1-(1-(methylsulfonyl)piperidin-4-yl)-1H-pyrazol-4-yl)-1H-pyrrolo[2,3-b]pyridine]", "values": [
      {"measurement": "levels of γ-H2AX and tailed DNA", "setting": "[1]", "value": "modestly increased"},
      {"measurement": "phosphorylation of HDAC4/HDAC5/HDAC7", "setting": "[2]", "value": "significantly decreased"},
      {"measurement": "tumor burden / tumor volume", "setting": "[3]", "value": "remained unchanged"},
      {"measurement": "hematologic / hematopoietic toxicity", "setting": "[4]", "value": "minimal hematologic toxicity; also recorded: little effect on normal hematopoietic or organ function; also recorded: little or no hematopoietic toxicity"},
      {"measurement": "xenograft growth and survival", "setting": "[5]", "value": "inhibited xenograft growth and prolonged the survival"},
      {"measurement": "carboplatin dose response curve when Compound B was added", "setting": "[6]", "value": "shifted to the left in seven of eight ovarian cancer cell lines"},
      {"measurement": "clonogenic survival", "setting": "[7]", "value": "significantly enhanced carboplatin induced loss of clonogenic survival"},
      {"measurement": "survivin expression", "setting": "[8]", "value": "downregulation of survivin"},
      {"measurement": "pIC50", "setting": "[9]", "value": 6.45},
      {"measurement": "comet tail moment induced with carboplatin", "setting": "[10]", "value": "further enhanced"}
    ]}
  ]
}
